The target of experiment [1] is T1, proMMP9(20-445;ΔFnII) (SEQ ID NO:6) (Homo sapiens, UniProt P14780, DEL216-390).
T1 construct: start methionine (N); made in house; host or cells: E. coli BL21(DE3) RIL
T1 sequence (P14780 with tags, fused parts or gaps DEL216-390): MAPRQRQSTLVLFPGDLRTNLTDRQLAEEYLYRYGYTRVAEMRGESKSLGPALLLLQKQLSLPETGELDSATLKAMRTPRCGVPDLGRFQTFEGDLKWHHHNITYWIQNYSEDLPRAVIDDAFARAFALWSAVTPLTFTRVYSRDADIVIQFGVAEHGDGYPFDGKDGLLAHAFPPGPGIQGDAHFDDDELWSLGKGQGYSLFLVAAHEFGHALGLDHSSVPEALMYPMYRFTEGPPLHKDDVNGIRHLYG
Put plainly: ThermoFluor binding assay with proMMP9(20-445;ΔFnII). In a few lines: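 Thermal-shift binding using 2.8 μM proMMP9(20-445;ΔFnII) with 50 μM 1,8-ANS in 50 mM HEPES pH 7.0, 100 mM NaCl, 0.001% Tween-20, 2.5 mM MgCl2, 300 μM CaCl2. Compound serially diluted; heated 40–90 °C at 1 °C/min, fluorescence 500 nm. Tm shifts fitted using DSC/ThermoFluor-derived thermodynamic parameters.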
In general terms: DSF heats the sample and reads unfolding from a dye or from intrinsic fluorescence.

The target of experiment [2] is T2, proMMP9(67-444;ΔFnII) (SEQ ID NO:5) (Homo sapiens, UniProt P14780, DEL216-390).
T2 construct: start methionine (N); made in house; host or cells: E. coli BL21(DE3) RIL
T2 sequence (P14780 with tags, fused parts or gaps DEL216-390): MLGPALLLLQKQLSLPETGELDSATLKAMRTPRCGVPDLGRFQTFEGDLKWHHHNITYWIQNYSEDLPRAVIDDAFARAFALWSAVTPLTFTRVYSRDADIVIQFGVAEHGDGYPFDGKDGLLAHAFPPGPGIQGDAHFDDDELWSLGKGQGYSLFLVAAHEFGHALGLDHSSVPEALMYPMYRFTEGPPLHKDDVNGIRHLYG
Put plainly: ThermoFluor binding assay with proMMP9(67-444;ΔFnII). Summed up: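 Thermal shift with 3.5 μM desalted proMMP9(67-444;ΔFnII) and 50 μM 1,8-ANS in 50 mM HEPES pH 7.0, 100 mM NaCl, 0.001% Tween-20, 2.5 mM MgCl2, 300 μM CaCl2; compounds serially diluted. Heated 40–90 °C at 1 °C/min, fluorescence at 500 nm; Tm fit, binding modelled using DSC-derived thermodynamic parameters.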

Experiment [3] deals with T3, full-length proMMP9(1-707) (SEQ ID NO:1), activation by catalytic MMP3 (Homo sapiens, UniProt P14780, R574P).
T3 construct: made in house; host or cells: HEK293 (proMMP9, secreted); E. coli (MMP3)
Kind of experiment: proMMP9/MMP3 P126 Activation Assay. The class given is biochemical. As to the method: proMMP9/MMP3 P126 Activation Assay
The reaction volume was 50 μL. […] Reactivity of residual MMP3 towards P-126 substrate was minimal under these conditions.

Where a name gives a salt, the structure may show the parent alone.

Results on 18 compounds are retold here after US20120129843A1, “PYRIDYL-THIAZOLYL INHIBITORS OF PRO-MATRIX METALLOPROTEINASE ACTIVATION” (priority 2010, published 2012).

T3 sequence (P14780 20-707 R574P): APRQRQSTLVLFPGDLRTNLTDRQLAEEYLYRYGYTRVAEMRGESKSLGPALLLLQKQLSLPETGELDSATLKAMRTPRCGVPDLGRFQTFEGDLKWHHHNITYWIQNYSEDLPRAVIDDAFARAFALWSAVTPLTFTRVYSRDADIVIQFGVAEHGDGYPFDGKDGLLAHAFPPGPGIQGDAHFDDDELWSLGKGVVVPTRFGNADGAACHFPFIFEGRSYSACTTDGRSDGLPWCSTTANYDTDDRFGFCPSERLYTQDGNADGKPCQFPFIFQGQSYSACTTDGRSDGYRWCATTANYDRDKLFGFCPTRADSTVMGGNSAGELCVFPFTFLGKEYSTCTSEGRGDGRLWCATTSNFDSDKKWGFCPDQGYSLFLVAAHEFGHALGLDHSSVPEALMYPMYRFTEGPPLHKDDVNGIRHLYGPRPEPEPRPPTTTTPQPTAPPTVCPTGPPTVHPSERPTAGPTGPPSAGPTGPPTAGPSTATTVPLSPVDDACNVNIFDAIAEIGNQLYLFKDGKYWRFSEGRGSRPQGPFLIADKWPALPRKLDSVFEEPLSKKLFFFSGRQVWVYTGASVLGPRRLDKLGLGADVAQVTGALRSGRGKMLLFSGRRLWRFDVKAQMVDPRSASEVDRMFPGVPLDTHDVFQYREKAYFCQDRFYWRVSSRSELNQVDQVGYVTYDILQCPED

As to `CC(C)Oc1ccc(S(N)(=O)=O)cc1Nc1nc(-c2ccc(C(=O)N3CCCN(C)CC3)nc2)cs1` [Example 49, 3-{4-[6-(4-Methyl-[1,4]diazepane-1-carbonyl)-pyridin-3-yl]-thiazol-2-ylamino}-4-isopropoxy-benzenesulfonamide.TFA], the Kd (as a rule, the concentration at which binding is half-saturated) in experiment [1] stood at 0.83 µM; in experiment [2], 2 µM. Further, in experiment [3], the IC50 (usually the point on the concentration scale where inhibition reaches its midpoint) came to 1 µM.
As for `CC(C)Oc1ccc(S(N)(=O)=O)cc1Nc1nc(-c2ccc(CO)nc2)cs1` [Example 56, 3-[4-(6-Hydroxymethyl-pyridin-3-yl)-thiazol-2-ylamino]-4-isopropoxy-benzenesulfonamide], the dissociation constant (Kd) is 0.64 µM in experiment [1] and 1.5 µM in experiment [2]. Half-maximal inhibition in experiment [3] (IC50) required 0.39 µM.
With `COc1cc(C)c(C(N)=O)cc1Nc1nc(-c2ccc(N3CCN(C)CC3)nc2)cs1` [Example 7, 4-Methoxy-2-methyl-5-{4-[6-(4-methyl-piperazin-1-yl)-pyridin-3-yl]-thiazol-2-ylamino}-benzamide.TFA], the dissociation constant (Kd) in experiment [1] came out at 1.2 µM; in experiment [2], 3.9 µM. This compound gave an IC50 in experiment [3] of 2.4 µM.
Consider `COc1cc(C(N)=O)ccc1Nc1nc(-c2cccnc2)cs1` [Example 6, 3-Methoxy-4-(4-pyridin-3-yl-thiazol-2-ylamino)-benzamide], for which the dissociation constant Kd in experiment [1] stood at 70 µM; in experiment [2] it was 11 µM. In experiment [3], this compound came in with an IC50 of 11 µM.
Regarding `CC(C)Oc1ccc(S(N)(=O)=O)cc1Nc1nc(-c2ccc(NCC3CC3)nc2)cs1` [Example 62, 3-((4-(6-((Cyclopropylmethyl)amino)pyridin-3-yl)thiazol-2-yl)amino)-4-isopropoxybenzenesulfonamide.TFA], the results for the Kd in experiment [1] and in experiment [2] were 0.51 µM and 2.2 µM, respectively. This compound also had an IC50 in experiment [3] of 0.61 µM.
The matching figures for `CC(C)Oc1ccc(S(N)(=O)=O)cc1Nc1nc(-c2ccc(N3CCNCC3)nc2)cs1` [Example 44, 4-Isopropoxy-3-[4-(6-piperazin-1-yl-pyridin-3-yl)-thiazol-2-ylamino]-benzenesulfonamide.TFA]: 0.048 µM, 0.13 µM and 0.073 µM.
The matching figures for `CCN1CCCN(C(=O)c2ccc(-c3csc(Nc4cc(S(N)(=O)=O)ccc4OC(C)C)n3)cn2)CC1` [Example 52, 3-{4-[6-(4-Ethyl-[1,4]diazepane-1-carbonyl)-pyridin-3-yl]-thiazol-2-ylamino}-4-isopropoxy-benzenesulfonamide.TFA]: 1.2 µM, 2.2 µM and 1 µM.
With `CC(C)Oc1ccc(C#N)cc1Nc1nc(-c2cccnc2)cs1` [Example 16, 4-Isopropoxy-3-(4-pyridin-3-yl-thiazol-2-ylamino)-benzonitrile.HBr], the Kd in experiment [1] is 20 µM; in experiment [2], 2.9 µM. Also, in experiment [3], the IC50 worked out at 3.2 µM.
The matching figures for `COC/C=C/c1ccc(-c2csc(Nc3cc(S(N)(=O)=O)ccc3OC(C)C)n2)cn1` [Example 93, (E)-4-Isopropoxy-3-((4-(6-(3-methoxyprop-1-en-1-yl)pyridin-3-yl)thiazol-2-yl)amino)benzenesulfonamide.TFA]: 0.58 µM, 3.4 µM and 0.52 µM.
In the case of `CC(C)CCNC(=O)c1ccc(-c2csc(Nc3cc(S(N)(=O)=O)ccc3OC(C)C)n2)cn1` [Example 85, N-Isopentyl-5-(2-((2-isopropoxy-5-sulfamoylphenyl)amino)thiazol-4-yl)picolinamide.TFA], the Kd in experiment [1] stood at 4.6 µM; in experiment [2], 32 µM. For the same compound, the IC50 in experiment [3] is around 20 µM.
The matching figures for `CCN1CCN(C(=O)c2ccc(-c3csc(Nc4cc(S(N)(=O)=O)ccc4OC(C)C)n3)cn2)CC1` [Example 47, 4-Isopropoxy-3-{4-[6-(4-ethyl-piperazine-1-carbonyl)-pyridin-3-yl]-thiazol-2-ylamino}-benzenesulfonamide.TFA]: 0.9 µM, 1.5 µM and 0.98 µM.
The matching figures for `CC(C)Oc1ccc(S(N)(=O)=O)cc1Nc1nc(-c2ccc(C(=O)N3CCNCC3)nc2)cs1` [Example 58, 4-Isopropoxy-3-{4-[6-(piperazine-1-carbonyl)-pyridin-3-yl]-thiazol-2-ylamino}-benzenesulfonamide.TFA]: 1.2 µM, 3.1 µM and 1.4 µM.
On to `CC(C)Oc1ccc(S(N)(=O)=O)cc1Nc1nc(-c2ccc(C(=O)N3CCN(C(=O)OC(C)(C)C)CC3)nc2)cs1` [Example 54, 4-{5-[2-(2-Isopropoxy-5-sulfamoyl-phenylamino)-thiazol-4-yl]-pyridine-2-carbonyl}-piperazine-1-carboxylic acid tert-butyl ester.TFA], for which the values for the Kd in experiment [1] and in experiment [2] were 0.96 µM and 2.5 µM, respectively. In experiment [3], this compound came in with a half-inhibitory concentration (IC50) of 3.7 µM.
With `CN1CCN(c2ccc(-c3csc(Nc4cc(C(N)=O)ccc4OC(F)(F)F)n3)cn2)CC1` [Example 31, 3-{4-[6-(4-Methyl-piperazin-1-yl)-pyridin-3-yl]-thiazol-2-ylamino}-4-trifluoromethoxy-benzamide], the Kd in experiment [1] was determined as 0.11 µM; in experiment [2] it was 0.61 µM. In addition, the IC50 in experiment [3] was found to be 0.64 µM.
On to `CC(C)Oc1ccc(S(N)(=O)=O)cc1Nc1nc(-c2ccc(C(=O)N(C)CCN(C)C)nc2)cs1` [Example 53, 5-[2-(2-Isopropoxy-5-sulfamoyl-phenylamino)-thiazol-4-yl]-pyridine-2-carboxylic acid (2-dimethylamino-ethyl)-methyl-amide.TFA], for which the Kd was 0.89 µM in experiment [1] and 2.3 µM in experiment [2]. The same compound returned a concentration for half-maximal inhibition (IC50) in experiment [3] of 0.97 µM.
The matching figures for `CC(C)Oc1ccc(S(N)(=O)=O)cc1Nc1nc(-c2ccc(NCCN(C)C)nc2)cs1` [Example 42, 3-(4-{6-[(2-Dimethylamino-ethyl)-amino]-pyridin-3-yl}-thiazol-2-ylamino)-4-isopropoxy-benzenesulfonamide.TFA]: 0.13 µM, 0.68 µM and 0.15 µM.
On to `CCN1CCN(c2ccc(-c3csc(Nc4cc(S(N)(=O)=O)ccc4OC(C)C)n3)cn2)CC1` [Example 38, 4-Isopropoxy-3-{4-[6-(4-ethyl-piperazin-1-yl)-pyridin-3-yl]-thiazol-2-ylamino}-benzenesulfonamide.TFA], for which the dissociation constant Kd in experiment [1] worked out at 0.073 µM; in experiment [2], 0.38 µM. Further, the IC50 in experiment [3] is 0.17 µM.
As for `CC(C)Cc1ccc(C(N)=O)cc1Nc1nc(-c2ccc(N3CCN(C)CC3)nc2)cs1` [Example 8, 4-Isobutyl-3-{4-[6-(4-methyl-piperazin-1-yl)-pyridin-3-yl]-thiazol-2-ylamino}-benzamide.TFA], the figures for the equilibrium dissociation constant (Kd) in experiment [1] and in experiment [2] were 0.37 µM and 2.9 µM, respectively. Moreover, in experiment [3], the IC50 was found to be 1.8 µM.
